# Test system: HCV replicon
# Experiment: HCV replicon replication assay (NPT ELISA) in Huh-7 replicon-containing cells
# Type: cell-based
# Details: Hepatitis C virus, 72 h; HCV replicon in Huh-7 cells, three days incubation; read-out: EC50
# Outline: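 Huh-7 cells carrying a bicistronic HCV replicon (HCV-IRES-neo, EMCV-IRES-driven NS3–NS5B, 3′-NTR) were seeded at 6000-7500 cells/well, grown 24 h to 60-70% confluence, then treated with graded compound concentrations. Replication was read as NPT level by capture ELISA (rabbit anti-NPTII, Eu-N1 secondary); interferon alpha served as positive control.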
row,Compound,EC50
1,"C=C[C@@H]1C[C@]1(NC(=O)[C@@H]1C[C@@H](Oc2cc(-c3ccccc3)nc3cc(OC)ccc23)CN1C(=O)[C@@H](CC(=O)N1CCC2(CC1)OCCO2)C(C)(C)C)C(=O)NS(=O)(=O)C1CC1 [Compound 75, (2S,4R)-1-((2S)-2-tert-butyl-4-oxo-4-(1,4-dioxa-8-azaspiro[4.5]decan-8-yl)butanoyl)-N-((1R,2S)-1-(cyclopropylsulfonyl-carbamoyl)-2-vinylcyclopropyl)-4-(7-methoxy-2-phenylquinolin-4-yloxy)pyrrolidine-2-carboxamide]",< 1 µM
2,"C=C[C@@H]1C[C@]1(NC(=O)[C@@H]1C[C@@H](Oc2cc(-c3ccccc3)nc3cc(OC)ccc23)CN1C(=O)[C@@H](CC(=O)N1CCC(CNC(=O)OC(C)(C)C)CC1)C(C)(C)C)C(=O)NS(=O)(=O)C1CC1 [Compound 76, tert-butyl (1-((S)-3-((2S,4R)-2-((1R,2S)-1-(cyclopropylsulfonyl-carbamoyl)-2-vinylcyclopropyl-carbamoyl)-4-(7-methoxy-2-phenylquinolin-4-yloxy)pyrrolidine-1-carbonyl)-4,4-dimethylpentano-yl)piperidin-4-yl)methylcarbamate]",< 1 µM
3,"C=C[C@@H]1C[C@]1(NC(=O)[C@@H]1C[C@@H](Oc2cc(-c3ccccc3)nc3cc(OC)ccc23)CN1C(=O)[C@@H](CC(=O)N1CCCCCC1)C(C)(C)C)C(=O)NS(=O)(=O)C1CC1 [Compound 77, (2S,4R)-1-((S)-4-(azepan-1-yl)-2-tert-butyl-4-oxobutanoyl)-N-((1R,2S)-1-(cyclopropyl-sulfonylcarbamoyl)-2-vinylcyclopropyl)-4-(7-methoxy-2-phenylquinolin-4-yloxy)pyrrolidine-2-carboxamide]",< 1 µM
4,C=C[C@@H]1C[C@]1(NC(=O)[C@@H]1C[C@@H](Oc2cc(-c3ccccc3)nc3cc(OC)ccc23)CN1C(=O)[C@@H](CC(=O)N1CCC(C(=O)NC)CC1)C(C)(C)C)C(=O)NS(=O)(=O)C1CC1 [Compound 78],< 1 µM
5,"C=C[C@@H]1C[C@]1(NC(=O)[C@@H]1C[C@@H](Oc2cc(-c3ccccc3)nc3cc(OC)ccc23)CN1C(=O)[C@@H](CC(=O)N1CC2CCC1C2)C(C)(C)C)C(=O)NS(=O)(=O)C1CC1 (stereo partly drawn) [Compound 79, (2S,4R)-1-((2S)-2-(2-(2-azabi-cyclo[2.2.1]heptan-2-yl)-2-oxoethyl)-3,3-dimethylbutanoyl)-N-((1R,2S)-1-(cyclopropyl-sulfonylcarbamoyl)-2-vinylcyclopropyl)-4-(7-methoxy-2-phenylquinolin-4-yloxy)pyrrolidine-2-carboxamide]",< 1 µM
6,"C=C[C@@H]1C[C@]1(NC(=O)[C@@H]1C[C@@H](Oc2cc(-c3ccccc3)nc3cc(OC)ccc23)CN1C(=O)[C@@H](CC(=O)N1CCC(C(F)(F)F)CC1)C(C)(C)C)C(=O)NS(=O)(=O)C1CC1 [Compound 80, (2S,4R)-1-((S)-2-tert-butyl-4-oxo-4-(4-(trifluoro-methyl)piperidin-1-yl)butanoyl)-N-((1R,2S)-1-(cyclopropyl-sulfonylcarbamoyl)-2-vinylcyclopropyl)-4-(7-methoxy-2-phenylquinolin-4-yloxy)pyrrolidine-2-carboxamide]",< 1 µM
7,C=C[C@@H]1C[C@]1(NC(=O)[C@@H]1C[C@@H](Oc2cc(-c3ccccc3)nc3cc(OC)ccc23)CN1C(=O)[C@@H](CC(=O)N1CC2CC3CC(C2)CC1C3)C(C)(C)C)C(=O)NS(=O)(=O)C1CC1 [Compound 81],< 1 µM
8,"C=C[C@@H]1C[C@]1(NC(=O)[C@@H]1C[C@@H](Oc2cc(-c3ccccc3)nc3cc(OC)ccc23)CN1C(=O)[C@@H](CC(=O)N1CCC(F)CC1)C(C)(C)C)C(=O)NS(=O)(=O)C1CC1 [Compound 82, (2S,4R)-1-((S)-2-tert-butyl-4-(4-fluoropiperidin-1-yl)-4-oxobutanoyl)-N-((1R,2S)-1-(cyclopropyl-sulfonylcarbamoyl)-2-vinylcyclopropyl)-4-(7-methoxy-2-phenylquinolin-4-yloxy)pyrrolidine-2-carboxamide]",< 1 µM
